Among the data in ChEMBL document CHEMBL1125268, “Targeting renal dipeptidase (dehydropeptidase I) for inactivation by mechanism-based inactivators” (J Med Chem, 1991) are k cat, K inact and Km values, retold here.

Data set [1] has as its target T1, Dipeptidase 1 (Sus scrofa) (UniProt P22412).
T1 sequence (whole entry): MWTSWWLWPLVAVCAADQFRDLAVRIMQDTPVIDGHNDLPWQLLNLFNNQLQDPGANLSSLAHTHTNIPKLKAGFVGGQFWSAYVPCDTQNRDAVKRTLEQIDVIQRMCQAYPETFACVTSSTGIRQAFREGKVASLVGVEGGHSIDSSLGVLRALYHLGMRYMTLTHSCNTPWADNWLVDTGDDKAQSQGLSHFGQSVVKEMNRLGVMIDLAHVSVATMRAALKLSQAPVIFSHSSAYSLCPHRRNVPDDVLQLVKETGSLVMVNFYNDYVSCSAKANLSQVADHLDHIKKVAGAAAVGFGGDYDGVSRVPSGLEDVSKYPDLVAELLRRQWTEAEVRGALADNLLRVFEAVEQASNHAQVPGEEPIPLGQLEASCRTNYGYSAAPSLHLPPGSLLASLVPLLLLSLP
As to the kind of experiment: The catalytic constant of the enzyme Renal dipeptidase was reported.

For data set [2], the target named is T1, Dipeptidase 1 (Sus scrofa). Put plainly: The double -reciprocal analysis of the pseudo-first -order inactivation rates verses the inhibitor concentrations were calculated for Renal dipeptidase.
Data set [3] has as its target T1, Dipeptidase 1 (Sus scrofa). As to the kind of experiment: The catalytic constant of the enzyme Inactivator of Renal dipeptidase was reported.
The target of data set [4] is T1, Dipeptidase 1 (Sus scrofa). As to the kind of experiment: The double -reciprocal analysis of the pseudo-first -order inactivation rates verses the inhibitor concentrations were calculated for Inactivator of Renal dipeptidase.
Compound in data set [5]: C=C(NC(=O)CC#N)C(=O)O
Put plainly: Michaelis-Menten constant was reported for the compound against Inactivator of Renal dipeptidase.

Substrate in data set [6]: C=C(NC(=O)CBr)C(=O)O
Put plainly: (§1) Michaelis-Menten constant was reported for the compound against Renal dipeptidase.

Substrate in data set [7]: C=C(CC(=O)CC#N)C(=O)O
The description is as §1.

Take `C=C(CC(=O)CC#N)C(=O)O`: the k cat in data set [1] is 0.55 s⁻¹. Further, the K inact in data set [2] is 0.151 min⁻¹.

On to `C=C(NC(=O)CC#N)C(=O)O`, for which the k cat in data set [3] was found to be 0.25 s⁻¹. In addition, in data set [4], the K inact was 0.277 min⁻¹.

`C=C(NC(=O)CBr)C(=O)O` returned a k cat in data set [1] of 0.538 s⁻¹.

B1: Dipeptidase 1 (Sus scrofa), P22412 (protein)
chain: MWTSWWLWPLVAVCAADQFRDLAVRIMQDTPVIDGHNDLPWQLLNLFNNQLQDPGANLSSLAHTHTNIPKLKAGFVGGQFWSAYVPCDTQNRDAVKRTLEQIDVIQRMCQAYPETFACVTSSTGIRQAFREGKVASLVGVEGGHSIDSSLGVLRALYHLGMRYMTLTHSCNTPWADNWLVDTGDDKAQSQGLSHFGQSVVKEMNRLGVMIDLAHVSVATMRAALKLSQAPVIFSHSSAYSLCPHRRNVPDDVLQLVKETGSLVMVNFYNDYVSCSAKANLSQVADHLDHIKKVAGAAAVGFGGDYDGVSRVPSGLEDVSKYPDLVAELLRRQWTEAEVRGALADNLLRVFEAVEQASNHAQVPGEEPIPLGQLEASCRTNYGYSAAPSLHLPPGSLLASLVPLLLLSLP
Consider B1, for which the Michaelis constant (Km) in data set [5] is 416 µM; in data set [6], 740 µM; in data set [7], 10300 µM.

As usually defined, the Km is the substrate concentration at which the rate is half of its maximum.
